Publication PMC8963105, “A Novel Modulator of the Renin–Angiotensin System, Benzoylaconitine, Attenuates Hypertension by Targeting ACE/ACE2 in Enhancing Vasodilation and Alleviating Vascular Inflammation” (Frontiers in Pharmacology, 2022)

Legend:
IL-6 = assay: serum IL-6 by ELISA in SHRs; assay type: in vivo, rat; conditions: oral 14 days
Source text: (§1) All three MDAs (BAC, BMC, and BHC) were purchased from Nature-Standard Co., Ltd. (Shanghai, China) and their purities were all over 98%. The anti-hypertensive effects of MDAs were studied in both acute and chronic experiments. The 16-week-old SHRs were used in animal experiments, and each group had six rats. In the acute experiment, drug administration was via i.v. injection. For i.v. injection, the animals were randomly assigned into four groups: vehicle (0.1% DMSO–0.9% salt solution, n = 6), low-dose group (0.6 mg kg^−1 body weight, n = 6), medium-dose group (2 mg kg^−1 body weight, n = 6), and high-dose group (6 mg kg^−1 body weight, n = 6). The drug was administered using a venous catheter. […] Blood pressure was recorded in real time.
(§2) Blood samples were collected from the left femoral artery of rats at the end point, followed by centrifugation at 1,000 × g for 15 min at 4°C. […] The concentrations of circulating ACE, ACE2, Ang I, Ang II, Ang (1–7), TNF-α, and IL-6 in serum were measured using the ELISA kits [ACE, cat#xy-R2401c, X-Y Biotechnology, Shanghai, China; ACE2, cat#xy-ACE2-Ra, X-Y Biotechnology; Ang I, cat#xy-E12541, X-Y Biotechnology; Ang II, cat#xy-R1430c, X-Y Biotechnology; Ang (1–7), cat#xy-Ang1-7-Ra, X-Y Biotechnology; TNF-α, cat#GM1149, Servicebio, Shanghai, China; IL-6, cat#GM1154, Servicebio] according to the manufacturer’s instructions. […]

ACE2 = ACE2 expression in aorta of SHRs (Western blot, tissue immunofluorescence); assay type: in vivo, rat; conditions: oral 14 days
Source text: as §1, with “catheter. In chronic experiments, the animals were randomly assigned into five groups: vehicle (5% Tween 80–0.9% salt solution, n = 6), captopril group (5 mg kg^−1 body weight, n = 6), low-dose group (3 mg kg^−1 body weight, n = 6), medium-dose group (10 mg kg^−1 body weight, n = 6), and high-dose group (30 mg kg^−1 body weight, n = 6). Oral administration with drug or 5% Tween 80–0.9% salt solution was carried out once a day, and continued for 14 days.” for “catheter.”, “time. […]” for “time.”
The cell samples and tissue sample were collected and placed in ice rapidly. […] Protein concentration in cell lysates was measured using a Bio-Rad DC Protein Assay Kit […]. […]

[1] = system: spontaneously hypertension rats (SHRs); assay: chronic experiment: blood pressure, heart rate and aorta histology after 14-day oral administration in SHRs; assay type: in vivo, rat; conditions: for DBP: 14 days (SHRs 130 ± 5); for MAP: 14 days (SHRs 151 ± 5); for SBP: 14 days (SHRs 172 ± 6)
Procedure: (§3) The SHRs were surgically implanted with a catheter via the left femoral artery, vein, and stomach after anesthetizing with 2% pentobarbital sodium (40 mg kg^−1 i.p.,). A pressure sensor was inserted into the terminal of the arterial catheter and connected to a PowerLab system (ADInstruments, New South Wales, Australia) for real-time blood pressure monitoring.
(§4) All three MDAs (BAC, BMC, and BHC) were purchased from Nature-Standard Co., Ltd. (Shanghai, China) and their purities were all over 98%. The anti-hypertensive effects of MDAs were studied in both acute and chronic experiments. The 16-week-old SHRs were used in animal experiments, and each group had six rats. In the acute experiment, drug administration was via i.v. injection. For i.v. injection, the animals were randomly assigned into four groups: vehicle (0.1% DMSO–0.9% salt solution, n = 6), low-dose group (0.6 mg kg^−1 body weight, n = 6), medium-dose group (2 mg kg^−1 body weight, n = 6), and high-dose group (6 mg kg^−1 body weight, n = 6). The drug was administered using a venous catheter. In chronic experiments, the animals were randomly assigned into five groups: vehicle (5% Tween 80–0.9% salt solution, n = 6), captopril group (5 mg kg^−1 body weight, n = 6), low-dose group (3 mg kg^−1 body weight, n = 6), medium-dose group (10 mg kg^−1 body weight, n = 6), and high-dose group (30 mg kg^−1 body weight, n = 6). Oral administration with drug or 5% Tween 80–0.9% salt solution was carried out once a day, and continued for 14 days. The drugs were dissolved in 0.1% DMSO–0.9% salt solution for intravenous injection and in 5% Tween 80–0.9% salt solution for oral administration. Blood pressure was recorded in real time.
(§5) Real-time blood pressure level was monitored after drug treatment in the acute and chronic experiments. All animals were surgically implanted with a catheter in the left femoral artery. After connection to the monitor, all animals were placed at room temperature of 25°C for 0.5–1 h and the average blood pressure value was calculated based on a real-time blood pressure curve (10 s of every 30 s).
After euthanizing the rats with sodium pentobarbital (100 mg kg^−1, i.p.) administration in combination with isoflurane inhalation, the aortas were harvested directly according to a previously described method. The aortas were fixed in 4% paraformaldehyde for 24 h and embedded in paraffin. The cross-sections (5 μm) were stained with hematoxylin and eosin or subjected to immunostaining. Immunofluorescence staining for ACE and ACE2 was performed according to the manufacturer’s instructions (Servicebio, Wuhan, China).

TNF-α = assay: serum TNF-α by ELISA in SHRs; assay type: in vivo, rat; conditions: oral 14 days
Source text: as §1, §2

rhACE2 = biological target: T1, rhACE2 (Homo sapiens, UniProt Q9BYF1); assay: SPR assay with rhACE2; assay type: binding; conditions: rhACE2 on chip, 5% DMSO–1.05× PBS
T1 construct: purchased Proteintech
T1 sequence (Q9BYF1 18-805): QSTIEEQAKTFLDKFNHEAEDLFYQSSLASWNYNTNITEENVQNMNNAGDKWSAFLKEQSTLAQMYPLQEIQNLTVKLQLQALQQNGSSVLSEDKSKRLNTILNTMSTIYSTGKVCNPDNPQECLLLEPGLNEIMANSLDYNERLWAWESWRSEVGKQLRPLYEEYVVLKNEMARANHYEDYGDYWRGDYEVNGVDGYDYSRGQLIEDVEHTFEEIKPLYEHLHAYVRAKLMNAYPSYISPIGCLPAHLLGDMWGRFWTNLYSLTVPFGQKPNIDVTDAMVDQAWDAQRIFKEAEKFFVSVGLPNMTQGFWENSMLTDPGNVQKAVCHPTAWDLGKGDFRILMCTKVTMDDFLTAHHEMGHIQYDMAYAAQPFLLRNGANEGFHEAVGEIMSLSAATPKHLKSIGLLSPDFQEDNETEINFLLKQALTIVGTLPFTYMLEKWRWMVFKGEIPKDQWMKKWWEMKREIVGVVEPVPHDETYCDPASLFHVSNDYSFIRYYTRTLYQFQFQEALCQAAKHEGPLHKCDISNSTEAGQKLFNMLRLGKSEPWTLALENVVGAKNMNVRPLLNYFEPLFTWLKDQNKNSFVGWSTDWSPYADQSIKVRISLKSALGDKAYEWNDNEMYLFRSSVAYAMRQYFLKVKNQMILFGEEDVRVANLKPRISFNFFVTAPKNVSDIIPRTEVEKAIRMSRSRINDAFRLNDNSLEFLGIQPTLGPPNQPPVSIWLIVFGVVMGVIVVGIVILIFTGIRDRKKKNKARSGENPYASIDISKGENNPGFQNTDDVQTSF
Procedure: To screen the potential targets of the MDAs in hypertension, a CVDPlatform (www.cbligand.org/CVD) was used as previously reported ([Zhang et al., 2016a]). The results of database screening were verified by virtual docking with Discovery Studio 3.5 (BIOVIA, San Diego, CA, United States) and then validated in the SPR assay. In the SPR assay, a solution of protein standards was prepared, and the concentration of recombinant human ACE (rhACE) protein and rhACE2 (Proteintech, Rosemont, IL, United States) solution was set to 500 μg ml^−1. […] Finally, the level of binding between the proteins and each molecule was determined based on the K d value.

[2] = system: spontaneously hypertension rats (SHRs); assay: acute experiment: real-time blood pressure after i.v. injection in SHRs; assay type: in vivo, rat
Procedure: as §3, §4, §5

In the case of CCN1CC2(COC)C(O)CC(OC)C34C5CC6(O)C(OC)C(O)C(O)(C5C6OC(=O)c5ccccc5)C(C(OC)C23)C14 (stereo not shown) [BAC, Benzoylaconitine], the “level of IL-6 in serum” value (IL-6) is reported as “reduced”, the “ACE2 expression in the aorta” value (ACE2) is reported as “no effect” and the “blood pressure versus vehicle group” value ([1]; oral 3 mg kg^−1 once a day, 14 days) is reported as “did not significantly differ”. For the same compound, the DBP ([1]; oral 10 mg kg^−1 once a day) was 119 ± 8 mmHg, the MAP ([1]; oral 10 mg kg^−1 once a day) was 136 ± 7 mmHg and the SBP ([1]; oral 10 mg kg^−1 once a day) was 154 ± 6 mmHg. For the same compound, the heart rate ([1]; oral 30 mg kg^−1 once a day, 14 days) was “reduce the heart rate”, the DBP ([1]; oral 30 mg kg^−1 once a day) was 101 ± 7 mmHg and the MAP ([1]; oral 30 mg kg^−1 once a day) was 121 ± 6 mmHg. For the same compound, the SBP ([1]; oral 30 mg kg^−1 once a day) was 139 ± 6 mmHg, the “vascular smooth muscle thickness (hematoxylin and eosin stain of aorta)” value ([1]; oral administration, 14 days) was “reverse smooth muscle remodeling” and the “level of TNF-α in serum” value (TNF-α) was “reduced”. For the same compound, the Kd (rhACE2) was 3.12 µM, the “anti-hypertensive effect (in words)” value ([2]; acute experiment, i.v. injection 0.6–6 mg kg^−1) was “observable anti-hypertensive effects” and the “duration of anti-hypertensive effect” value ([2]; i.v. injection, 0.6 mg kg^−1) was “at least 30 min”. The “lowering of SBP, DBP, and MAP” value ([2]; i.v. injection, lowest dose 0.6 mg kg^−1, 1–5 min) was “more than 20 mmHg”.
